Assay results published in US10653655B2, “Composition for preventing or improving peripheral neuropathy” (AJINOMOTO CO., INC., priority 2014, dated 2020).

How the values were obtained:
[1] = system: rat having hypersensitive pain induced by gonitis inducing agent (Zymosan); assay: Gastrocnemius weight of right and left foot in Zymosan gonitis rat (Experimental Example 2); format: in vivo; conditions: 21 days after Zymosan, rank among 2C-2E groups
Protocol: (§1) 8-Week-old male SD rats were divided into 5 groups (2A group-2E group, N=7) based on the body weight, and 2 mg of a gonitis inducing agent (Zymosan) was administered to the right knee cartilage part in 4 groups other than 2A group. In addition, the following evaluation liquid was orally ingested once per day in the time zone of 4 to 5 hours after start of the light period for 21 days from the administration of the gonitis inducing agent to the right knee. As eicosapentaenoic acid administered to 2D group, 2E group, fish oil corresponding to 300 mg/body weight kg (equivalent to 429 mg/body weight kg as n-3 fatty acid) was used.
(§2) Evaluation Liquids for 2A Group-2E Group: • 2A group: distilled water • 2B group: distilled water • 2C group: L-serine 10.5 mg/body weight kg • 2D group: eicosapentaenoic acid 300 mg/body weight kg equivalent • 2E group: L-serine 10.5 mg/body weight kg+eicosapentaenoic acid 300 mg/body weight kg equivalent
After the completion of ingestion of the evaluation liquid (21 days after gonitis inducing agent administration), rats were fasted for 17 hours, and the body weight, gastrocnemius weight of the right foot and the left foot, liver weight and weight of fat around epididymis of each group were measured.

[2] = system: rat having hypersensitive pain induced by anticancer agent (Oxaliplatin); assay: Von Frey test in rat having hypersensitive pain induced by anticancer agent (Experimental Example 1); format: in vivo; conditions: SD rat, Oxaliplatin 5 mg/kg i.p. 5 days; oral once per day 28 days; L-serine 10.5 mg/kg, EPA 300 mg/kg equivalent; 22 and 28 days; stimulation intensity 4 g, 8 g, 15 g
Protocol: 6-Week-old male SD rats were divided into 5 groups (1A group-1E group, N=6) based on the body weight, an anticancer agent (Oxaliplatin 5 mg/body weight kg) was intraperitoneally administered to 4 groups other than 1A group for 5 days, and saline was intraperitoneally administered to 1A group for 5 days. In addition, the following evaluation liquid was orally ingested once per day in the time zone of 4 to 5 hours after start of the light period for 28 days simultaneously from the start of the intraperitoneal administration. As eicosapentaenoic acid administered to 1D group, 1E group, fish oil corresponding to 300 mg/body weight kg (equivalent to 429 mg/body weight kg as n-3 fatty acid) was used. Evaluation Liquids for 1A Group-1E Group: • 1A group: distilled water • 1B group: distilled water • 1C group: L-serine 10.5 mg/body weight kg • 1D group: eicosapentaenoic acid 300 mg/body weight kg equivalent • 1E group: L-serine 10.5 mg/body weight kg+eicosapentaenoic acid 300 mg/body weight kg equivalent Von Frey test was performed at 22 days and 28 days after the start of the anticancer agent administration. […] The ratio (%) of the number of pain response relative to the number (10 times) of filament pressing was calculated at each stimulation intensity.

[3] = system: peripheral neuropathic pain in an animal model of anticancer agent or diabetes; conditions: at the maximum concentration of L-serine; WO 2011/111355; cited from earlier work
[4] = system: rat having hypersensitive pain induced by gonitis inducing agent (Zymosan); assay: Von Frey test in rat having hypersensitive pain induced by gonitis inducing agent (Zymosan) (Experimental Example 2); format: in vivo; conditions: SD rat, Zymosan 2 mg right knee; oral once per day; L-serine 10.5 mg/kg, EPA 300 mg/kg equivalent; 7 and 14 days; right and left foot; 4 g, 8 g, 15 g
Protocol: as §1, §2
Von Frey test was performed at 7 days and 14 days after the gonitis inducing agent administration. […] The ratio (%) of the number of pain response relative to the number (5 times) of filament pressing was calculated at each stimulation intensity.

N[C@@H](CO)C(=O)O [L-serine]
gastrocnemius weight of the right foot, comparison in 2C group to 2E group ([1]; after 17 h fasting): lowest | difference in the gastrocnemius weight of both feet, comparison among 2C group to 2E group [1]: largest | number of pain response (Von Frey test) as compared to 1B group [2]: slightly decreased | relieving effect on peripheral neuropathic pain due to anticancer agents and diabetes [3]: partial | number of pain response (Von Frey test) as compared to 2B group [4]: slightly decreased
